Source: ChEMBL document CHEMBL1201862, “PubChem BioAssay data set” (2004)
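Briefly, cells in 96-well plates were exposed to five compound concentrations for 48 h, and endpoints were estimated by linear interpolation. Abbreviation: GI50, concentration required for 50% inhibition of growth.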 Active and inactive are the calls of the source. Cut-off read from the data, not from the text of the source: active = GI50 up to about 1.1 µM and inactive = higher.

Experiments:
Test in all cases: NCI anticancer screen, dose series, 48 h
[1] = test system: TK-10
[2] = test system: M14
[3] = test system: NCI-H522
[4] = test system: MCF7
[5] = test system: SK-MEL-2
[6] = test system: SN12C
[7] = test system: UO-31
[8] = test system: PC-3
[9] = test system: HOP-62
[10] = test system: HL-60
[11] = test system: 786-0
[12] = test system: SK-OV-3
[13] = test system: MDA-MB-231
[14] = test system: OVCAR-5
[15] = test system: SNB-19
[16] = test system: HT-29
[17] = test system: A549
[18] = test system: RPMI-8226
[19] = test system: OVCAR-8

Compound | GI50 [1] | GI50 [2] | GI50 [3] | GI50 [4] | GI50 [5] | GI50 [6] | GI50 [7] | GI50 [8] | GI50 [9] | GI50 [10] | GI50 [11] | GI50 [12] | GI50 [13] | GI50 [14] | GI50 [15] | GI50 [16] | GI50 [17] | GI50 [18] | GI50 [19]
CN(C)C=O.O=C(Nc1nnn[nH]1)c1nc(O)cc(-c2ccccc2)n1 | > 100 µM (inactive) | > 100 µM (inactive) | > 100 µM (inactive) | > 100 µM (inactive) | > 100 µM (inactive) | > 100 µM (inactive) | > 100 µM (inactive) | > 100 µM (inactive) | > 100 µM (inactive) | > 100 µM (inactive) | > 100 µM (inactive) | > 100 µM (inactive) | > 100 µM (inactive) | > 100 µM (inactive) | > 100 µM (inactive) | > 100 µM (inactive) | > 100 µM (inactive) | > 100 µM (inactive) | > 100 µM (inactive)
CC1=C/C(=C(/c2ccc(O)c(C)c2)c2ccccc2C(=O)O)C=CC1=O | 17.3 µM (inactive) | 18.3 µM (inactive) | 21.5 µM (inactive) | 19.7 µM (inactive) | 20.6 µM (inactive) | 19.6 µM (inactive) | 18.8 µM (inactive) | 19.6 µM (inactive) | 19 µM (inactive) | 20.8 µM (inactive) | 19 µM (inactive) | 19.2 µM (inactive) | 19.9 µM (inactive) | 21.2 µM (inactive) | 17.7 µM (inactive) | 21.9 µM (inactive) | 19.5 µM (inactive) | 20 µM (inactive) | 20 µM (inactive)
CCCCC1C=Cn2c(=O)oc3c(OC(C)C)c(C)c(O)c1c32 (stereo not drawn) | 5.52 µM (inactive) | 1.19 µM (inactive) | 1.24 µM (inactive) | 0.509 µM (active) | 1.66 µM (inactive) | 1.37 µM (inactive) | 0.71 µM (active) | 2.43 µM (inactive) | 0.0497 µM (active) | 0.46 µM (active) | 1.16 µM (inactive) | 3.14 µM (inactive) | 1.87 µM (inactive) | 4.78 µM (inactive) | 0.323 µM (active) | 2.7 µM (inactive) | 1.84 µM (inactive) | 1.42 µM (inactive) | 1.73 µM (inactive)
COc1cc(/C=C2\N=C(c3ccccc3)N(c3nc4ccc(Sc5ccccc5)cc4[nH]3)C2=O)cc(OC)c1OC | 24.6 µM (inactive) | 19.3 µM (inactive) | 18.1 µM (inactive) | 17.8 µM (inactive) | 15.4 µM (inactive) | 27.9 µM (inactive) | 34.4 µM (inactive) | 26.9 µM (inactive) | 31.5 µM (inactive) | 14.7 µM (inactive) | 20.4 µM (inactive) | 30.1 µM (inactive) | 20.6 µM (inactive) | 33.7 µM (inactive) | 33.6 µM (inactive) | 21.4 µM (inactive) | 34.3 µM (inactive) | 20.1 µM (inactive) | 32.7 µM (inactive)
O=C1C=CC(=O)c2c1ccc1c3ccccc3n(Cc3cccc([N+](=O)[O-])c3)c21 | 20 µM (inactive) | 27.7 µM (inactive) | 18.8 µM (inactive) | 22.3 µM (inactive) | 39.8 µM (inactive) | 21.8 µM (inactive) | 50 µM (inactive) | 30.1 µM (inactive) | > 100 µM (inactive) | 6.9 µM (inactive) | 22.8 µM (inactive) | > 100 µM (inactive) | 24.2 µM (inactive) | > 100 µM (inactive) | > 100 µM (inactive) | 30.4 µM (inactive) | > 100 µM (inactive) | 17.8 µM (inactive) | 30.4 µM (inactive)
C=C(C)[C@@]1(O[Si](C)(C)C)CCCC[C@@H]1CC(Sc1ccccc1)Sc1ccccc1 | 15.4 µM (inactive) | 14.9 µM (inactive) | 7.83 µM (inactive) | 12 µM (inactive) | 15 µM (inactive) | – | 13.8 µM (inactive) | 13.2 µM (inactive) | 13.8 µM (inactive) | 16.7 µM (inactive) | 14.6 µM (inactive) | 20 µM (inactive) | 16.8 µM (inactive) | 16.2 µM (inactive) | 16.4 µM (inactive) | 19.7 µM (inactive) | 10.1 µM (inactive) | 16.9 µM (inactive) | 16.1 µM (inactive)
N/C(=N\c1ccc(Cl)c(Cl)c1)c1ccccc1N | 36.8 µM (inactive) | 15.5 µM (inactive) | 11.4 µM (inactive) | 52.1 µM (inactive) | 15.4 µM (inactive) | – | 24.2 µM (inactive) | 19.3 µM (inactive) | 57.4 µM (inactive) | 22.2 µM (inactive) | 28.2 µM (inactive) | 85.7 µM (inactive) | 25.3 µM (inactive) | 36 µM (inactive) | 31.3 µM (inactive) | 24.3 µM (inactive) | 25.3 µM (inactive) | 15.6 µM (inactive) | 26.4 µM (inactive)
COC(=O)c1ccc(Nc2nc3[nH]cnc3c(=O)[nH]2)cc1 | > 100 µM (inactive) | 59.2 µM (inactive) | > 100 µM (inactive) | > 100 µM (inactive) | > 100 µM (inactive) | > 100 µM (inactive) | – | > 100 µM (inactive) | > 100 µM (inactive) | > 100 µM (inactive) | > 100 µM (inactive) | 89.3 µM (inactive) | > 100 µM (inactive) | > 100 µM (inactive) | > 100 µM (inactive) | 58.7 µM (inactive) | > 100 µM (inactive) | 47.5 µM (inactive) | > 100 µM (inactive)
COC(=O)NN=C(c1ccc(Cl)cc1)c1ccc(Cl)cc1 | 54.2 µM (inactive) | > 100 µM (inactive) | > 100 µM (inactive) | > 100 µM (inactive) | > 100 µM (inactive) | > 100 µM (inactive) | > 100 µM (inactive) | > 100 µM (inactive) | – | > 100 µM (inactive) | > 100 µM (inactive) | > 100 µM (inactive) | > 100 µM (inactive) | > 100 µM (inactive) | > 100 µM (inactive) | 58.6 µM (inactive) | 71.1 µM (inactive) | > 100 µM (inactive) | > 100 µM (inactive)
CC(=O)O[C@H]1C(=O)[C@@]2(C)[C@H]([C@H](OC(=O)c3ccc(F)cc3)[C@]3(O)C[C@H](OC(=O)[C@H](O)[C@@H](NC(=O)c4ccccc4)c4ccccc4)C(C)=C1C3(C)C)[C@]1(OC(C)=O)CO[C@@H]1C[C@@H]2O | 0.416 µM (active) | 0.0559 µM (active) | 0.0116 µM (active) | 0.00334 µM (active) | 0.0597 µM (active) | 0.528 µM (active) | 5.92 µM (inactive) | 0.0112 µM (active) | 0.126 µM (active) | 0.00469 µM (active) | 0.084 µM (active) | 0.0159 µM (active) | 0.219 µM (active) | 0.0222 µM (active) | 0.0306 µM (active) | 0.00678 µM (active) | 0.082 µM (active) | 0.00592 µM (active) | 0.0181 µM (active)
COC(=O)C(CC(C)C)NC(=O)C(NC(=O)c1ccc(-c2ccc(Cl)cc2Cl)o1)C(C)C (stereo not drawn) | 27.4 µM (inactive) | 24 µM (inactive) | 23.2 µM (inactive) | 16.5 µM (inactive) | 21.3 µM (inactive) | 18 µM (inactive) | 29 µM (inactive) | 14.1 µM (inactive) | 21.4 µM (inactive) | 6.56 µM (inactive) | 16.1 µM (inactive) | 30.8 µM (inactive) | 13.8 µM (inactive) | 22.2 µM (inactive) | 30.5 µM (inactive) | 15.3 µM (inactive) | 21 µM (inactive) | 11.6 µM (inactive) | 28.2 µM (inactive)
CC(CNC(=O)c1ccccc1)(CNC(=O)c1ccccc1)[N+](=O)[O-] | > 100 µM (inactive) | > 100 µM (inactive) | 67.1 µM (inactive) | > 100 µM (inactive) | > 100 µM (inactive) | > 100 µM (inactive) | 23.8 µM (inactive) | > 100 µM (inactive) | – | > 100 µM (inactive) | > 100 µM (inactive) | > 100 µM (inactive) | > 100 µM (inactive) | > 100 µM (inactive) | 7.05 µM (inactive) | > 100 µM (inactive) | > 100 µM (inactive) | > 100 µM (inactive) | > 100 µM (inactive)
CC[C@@H]1/C=C/C=C/C[C@H](C)[C@@H](O)[C@](C)(O)C(=O)[C@H](C)[C@@H](O)[C@H](C)C(=O)[C@H](C)[C@@H](O)[C@H](C)/C=C/C(=O)O[C@H]2[C@@H](C)[C@@H](CC1)O[C@@]1(CC[C@@H](C)[C@@H](CC(C)O)O1)[C@@H]2C (stereo partly drawn) | 1.65 µM (inactive) | 1.24 µM (inactive) | < 0.01 µM (active) | < 0.01 µM (active) | 2.13 µM (inactive) | 1.72 µM (inactive) | 0.0307 µM (active) | < 0.01 µM (active) | – | < 0.01 µM (active) | 1.85 µM (inactive) | 3.13 µM (inactive) | 1.83 µM (inactive) | 1.68 µM (inactive) | < 0.01 µM (active) | 1.36 µM (inactive) | < 0.01 µM (active) | < 0.0162 µM (active) | < 0.01 µM (active)
CC1=CCC(=O)[C@]2(C)C(CC(=O)O)[C@]3(C)C4=C(C)C(c5ccoc5)C[C@@H]4O[C@@H]3[C@H](O)[C@@H]12 (stereo partly drawn) | > 100 µM (inactive) | > 100 µM (inactive) | > 100 µM (inactive) | > 100 µM (inactive) | > 100 µM (inactive) | > 100 µM (inactive) | > 100 µM (inactive) | > 100 µM (inactive) | – | > 100 µM (inactive) | > 100 µM (inactive) | > 100 µM (inactive) | > 100 µM (inactive) | > 100 µM (inactive) | > 100 µM (inactive) | – | > 100 µM (inactive) | > 100 µM (inactive) | > 100 µM (inactive)
